The subject of one series is CML cell line K562. Description: MTT cell viability assay, K562. Format: cell-based, human. As to conditions: for IC50: read-out: IC50 Values, K562 Cell Line; for SI (selectivity index): ratio of the IC50 between PBMC and K562 cells. The method, then: A549 human lung carcinoma and HeLa human cervical carcinoma cell lines were cultured in Dulbecco’s Modified Eagle Medium (DMEM). […] In experiments, all cancer cell lines and PBMC were cultured in 24-well and 96-well plates (Iwaki brand Asahi Glass, Chiba, Japan) at 2 × 10^4 cells/mL and 1 × 10^6 cells/mL concentrations, respectively for 24 h.
The cells were then stained with MTT solution and incubated for additional 4 h. At the end of this period, supernatants were removed and 100 μL DMSO was added to each well to solubilize the formazan crystals. The absorbance of the solution was determined on the Infinitive M1000 (Tecan, Mannedorf, Switzerland) plate reader at a wavelength of 550 nm with background subtraction at 630 nm.

The test system of series [1] is peripheral blood mononuclear cells (PBMC). Description: MTT cell viability assay, PBMC. In kind it is cell-based. Conditions: 24 h exposure. The procedure:
A549 human lung carcinoma and HeLa human cervical carcinoma cell lines were cultured in Dulbecco’s Modified Eagle Medium (DMEM). MCF7 human breast cancer and leukemic (K562, HL-60, MT-2 and Jurkat) cells, and PBMC (Precision Bioservices, Frederic, MD, USA) were cultured in RPMI 1640. All media were purchased from FUJIFILM Wako (Osaka, Japan) and supplemented with 10% fetal bovine serum (FBS) (Sigma-Aldrich, St. Louis, MO, USA) and 89 μg/mL streptomycin (Meiji Seika Pharma, Tokyo, Japan) at 37 °C in a humid atmosphere and 5% CO2. In experiments, all cancer cell lines and PBMC were cultured in 24-well and 96-well plates (Iwaki brand Asahi Glass, Chiba, Japan) at 2 × 10^4 cells/mL and 1 × 10^6 cells/mL concentrations, respectively for 24 h.
The cells were exposed to various concentrations (1–100 μM) of the compounds for 24 h at 37 °C. The cells were then stained with MTT solution and incubated for additional 4 h. At the end of this period, supernatants were removed and 100 μL DMSO was added to each well to solubilize the formazan crystals. The absorbance of the solution was determined on the Infinitive M1000 (Tecan, Mannedorf, Switzerland) plate reader at a wavelength of 550 nm with background subtraction at 630 nm.

For a further series, the system named is K562 cells. Description: Cell death detection (Hoechst 33342/annexin V/ethidium homodimer III staining). Format: cell-based, human. Conditions: K562, IC50 concentration, 8 h. The procedure: The cells were then briefly washed twice with 1 × binding buffer. A staining solution containing 50 μL of 1 × binding buffer and 5 μL of FITC-Annexin V solution, 5 μL of ethidium homodimer III solution, or 5 μL of Hoechst 33342 solution was added, and incubated for 15 min at room temperature in the dark. Then, the cells were washed with 1 × binding buffer, and analyzed by the all-in-one fluorescence microscope Biorevo Fluorescence BZ-9000 (Keyence, Osaka, Japan). The number of healthy cells (Hoechst 33342), apoptotic cells (Annexin V), late apoptotic or necrotic cells (Annexin V and Ethidium homodimer III) and necrotic cells (Ethidium homodimer III) were counted as previously described.

The mark [2] stands for this setting: Homo sapiens, K562, 24 h, MTT, 24 h exposure.

Read-outs that look alike come from different tables or passages of the source.

For the molecule `C[C@H]1[C@H](C)CC[C@]2(C(=O)O)CC[C@]3(C)C(=CC[C@@H]4[C@@]5(C)C[C@@H](O)[C@H](O)[C@@](C)(CO)[C@@H]5CC[C@]43C)[C@H]12` [AA, asiatic acid, reference compound], the IC50 with CML cell line K562 (setting [2]) is 29.3 ± 3.42 µM; in series [1] (PBMC) it was more than 100 µM. For the same molecule, the “SI (selectivity index)” value in the series on CML cell line K562 is more than 3.41.

For `C=C(C)[C@@H]1CC[C@]2(C(=O)O)CC[C@]3(C)[C@H](CC[C@@H]4[C@@]5(C)CC[C@H](O)C(C)(C)[C@@H]5CC[C@]43C)[C@@H]12` [BA, betulinic acid, reference compound], the IC50 with CML cell line K562 (setting [2]) was 52.3 ± 4.79 µM; in series [1] (PBMC) it was more than 100 µM. The “SI (selectivity index)” value with CML cell line K562 was more than 1.91.

For the molecule `CC1(C)[C@@H](O)CC[C@]2(C)[C@H]3C(=O)C=C4[C@@H]5C[C@@](C)(C(=O)O)CC[C@]5(C)CC[C@@]4(C)[C@]3(C)CC[C@@H]12` [GA, glycyrrhetinic acid, reference compound], the IC50 in the series with CML cell line K562 (setting [2]) is 41 ± 5.34 µM; in series [1] (PBMC), more than 100 µM. In addition, the “SI (selectivity index)” value in the series with CML cell line K562 is more than 2.43.

`COc1ccc(COC(=O)[C@]23CCC(C)(C)C[C@H]2C2=CC[C@@H]4[C@@]5(C)CC[C@H](O)[C@@](C)(C=O)[C@@H]5CC[C@@]4(C)[C@]2(C)CC3)cc1` [GP1, Gypsogenin 4-methoxybenzyl ester] registered a melting point of 78 to 80 °C. Moreover, in the series with CML cell line K562 (setting [2]), the IC50 is 5.53 ± 1.78 µM. Besides, in the series on CML cell line K562, the “SI (selectivity index)” value is reported as 4.53. The molecule also showed an IC50 in series [1] (PBMC) of 25.1 ± 2.92 µM.

The molecule `CC1(C)CC[C@]2(C(=O)OCc3ccc(C(F)(F)F)cc3)CC[C@]3(C)C(=CC[C@@H]4[C@@]5(C)CC[C@H](O)[C@@](C)(C=O)[C@@H]5CC[C@]43C)[C@@H]2C1` [GP3, Gypsogenin 4-trifluoromethyl benzyl ester] had a melting point of 175 to 177 °C. The IC50 in the series on CML cell line K562 (setting [2]) was 4.58 ± 1.49 µM. Further, in the series on CML cell line K562, the “SI (selectivity index)” value came out at 5.07. Also, the IC50 in series [1] (PBMC) was 23.2 ± 3.08 µM.

Consider `CC1(C)CC[C@]2(C(=O)OCc3cc(F)cc(F)c3)CC[C@]3(C)C(=CC[C@@H]4[C@@]5(C)CC[C@H](O)[C@@](C)(C=O)[C@@H]5CC[C@]43C)[C@@H]2C1` [GP4, Gypsogenin 3,5-difluorobenzyl ester], for which the melting point was 58 to 60 °C. For the same molecule, the IC50 in the series with CML cell line K562 (setting [2]) was determined as 5.13 ± 1.38 µM. Further, in the series with CML cell line K562, the “SI (selectivity index)” value amounted to 5.51. Besides, it took 28.3 ± 2.25 µM to reach half-maximal inhibition in series [1] (PBMC) (IC50).

Turning to `CC1(C)CC[C@]2(C(=O)O)CC[C@]3(C)C(=CC[C@@H]4[C@@]5(C)CC[C@H](O)[C@@](C)(CO)[C@@H]5CC[C@]43C)[C@@H]2C1` [HE, hederagenin, reference compound], the IC50 (with CML cell line K562 (setting [2]); in series [1] (PBMC)) was more than 100 µM each time. The “SI (selectivity index)” value with CML cell line K562 is listed as more than 1.

For `Cc1ccc(NC(=O)c2ccc(CN3CCN(C)CC3)cc2)cc1Nc1nccc(-c2cccnc2)n1` [Imatinib, reference compound], in the series on K562 cells, the “apoptotic effects on CML cell line” value was determined as 18% and the late apoptotic/necrotic effects is recorded as 5.6%.

Turning to `CC1(C)CC[C@]2(C(=O)O)CC[C@]3(C)C(=CC[C@@H]4[C@@]5(C)CC[C@H](O)C(C)(C)[C@@H]5CC[C@]43C)[C@@H]2C1` [OA, oleanolic acid, reference compound], the IC50 with CML cell line K562 (setting [2]) is approximately 13 µM; in the series on CML cell line K562 (MTT, 24 h exposure), 13.5 ± 2.55 µM; in series [1] (PBMC), more than 100 µM.

Turning to `C[C@H]1[C@H](C)CC[C@]2(C(=O)OCc3ccccc3)CC[C@]3(C)C(=CC[C@@H]4[C@@]5(C)C[C@@H](O)[C@H](O)[C@@](C)(CO)[C@@H]5CC[C@]43C)[C@H]12` [PT1, Asiatic acid benzyl ester], the half-inhibitory concentration (IC50) amounted to 4.1 ± 0.85 µM in the series on CML cell line K562 (setting [2]) and 15.5 ± 1.08 µM in series [1] (PBMC). Further, the “SI (selectivity index)” value with CML cell line K562 was found to be 3.79.

For `C=C(C)[C@@H]1CC[C@]2(C(=O)OCc3ccccc3)CC[C@]3(C)[C@H](CC[C@@H]4[C@@]5(C)CC[C@H](O)C(C)(C)[C@@H]5CC[C@]43C)[C@@H]12` [PT2, Betulinic acid benzyl ester], the IC50 was found to be 8.49 ± 1.22 µM in the series on CML cell line K562 (setting [2]) and 28 ± 2.74 µM in series [1] (PBMC). In addition, in the series on CML cell line K562, the “SI (selectivity index)” value was determined as 3.29.

As to `CC1(C)[C@@H](O)CC[C@]2(C)[C@H]3C(=O)C=C4[C@@H]5C[C@@](C)(C(=O)OCc6ccccc6)CC[C@]5(C)CC[C@@]4(C)[C@]3(C)CC[C@@H]12` [PT3, Glycyrrhetic acid benzyl ester], the IC50 with CML cell line K562 (Homo sapiens, K562, 24 h) was 69.5 ± 8.43 µM; in series [1] (PBMC), more than 100 µM. Also, in the series on CML cell line K562, the “SI (selectivity index)” value is listed as more than 1.44.

Turning to `CC1(C)CC[C@]2(C(=O)OCc3ccccc3)CC[C@]3(C)C(=CC[C@@H]4[C@@]5(C)CC[C@H](O)[C@@](C)(CO)[C@@H]5CC[C@]43C)[C@@H]2C1` [PT4, Hederagenin benzyl ester], the IC50 was 6.48 ± 1.27 µM in the series on CML cell line K562 (setting [2]) and 23.1 ± 3.11 µM in series [1] (PBMC). Moreover, the “cytotoxicity on K562 relative to parent triterpene HE” value in the series on CML cell line K562 (fold vs HE) is recorded as “more than 15 times”. The “SI (selectivity index)” value in the series with CML cell line K562 was determined as 3.56.

Consider `C[C@H]1[C@H](C)CC[C@]2(C(=O)OCc3ccccc3)CC[C@]3(C)C(=CC[C@@H]4[C@@]5(C)CC[C@H](O)C(C)(C)[C@@H]5CC[C@]43C)[C@H]12` [PT6, Ursolic acid benzyl ester], for which the IC50 came to 21.8 ± 1.24 µM in the series on CML cell line K562 (setting [2]) and 43.3 ± 1.93 µM in series [1] (PBMC). In addition, the “SI (selectivity index)” value with CML cell line K562 was 1.99.

As for `C[C@H]1[C@H](C)CC[C@]2(C(=O)O)CC[C@]3(C)C(=CC[C@@H]4[C@@]5(C)CC[C@H](O)C(C)(C)[C@@H]5CC[C@]43C)[C@H]12` [UA, ursolic acid, reference compound], the IC50 in the series with CML cell line K562 (setting [2]) is 16.5 ± 1.13 µM; in series [1] (PBMC), more than 100 µM. In the series with CML cell line K562, the “SI (selectivity index)” value is recorded as more than 6.06.

With gypsogenin [GP, reference compound], the IC50 in the series with CML cell line K562 (MTT, 24 h exposure) was 12.7 ± 2.15 µM; in series [1], more than 100 µM.

For the origin of these results see PMC6804044, “Design, Synthesis and Biological Evaluation of Pentacyclic Triterpene Derivatives: Optimization of Anti-ABL Kinase Activity” (Molecules, 2019).
